Experiments:
Format in all cases: in vivo
Details in all cases: treatment dosage 320 g/ha
Italian ryegrass [1] = assay: Test Example 3: weedkilling efficacy through soil treatment; I: Italian ryegrass
Procedure, shortened: (§1)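 Crop and weed responses were judged three weeks after a uniform surface spray of the water-diluted emulsion at the given g/ha rate. Seeds sat beneath about 1.5 cm of sterilized diluvial soil, and boxes stood in a greenhouse at 25 to 30° C.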

transplanted rice = assay: Test Example 1: preemergent weed treatment in the submerged state, effect on crop; a: transplanted rice
Procedure, shortened: (§2)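 Submerged pre-emergence treatment, water-surface application of compound emulsion at g/ha dosages; 4 cm flooded alluvial soil, weeds sown and 2.5-leaf rice transplanted same day. Rated after 3 weeks, greenhouse.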

beet [2] = assay: Test Example 4: foliar treatment, effect on crop; f: beet
Procedure, shortened: (§3)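 Seeds are spot-sown into sterilized diluvial soil and covered with about 1.5 cm of soil. After 14 days' greenhouse growth at 25 to 30° C, plants are sprayed on stems and leaves with diluted emulsion at the stated g/ha rate, then scored at 3 weeks.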

Indian mallow [3] = assay: Test Example 4: weedkilling efficacy by foliar treatment; K: Indian mallow
Procedure, shortened: as §3

common wind-grass [4] = assay: Test Example 4: weedkilling efficacy by foliar treatment; J: common wind-grass
Procedure, shortened: as §3

birds-eye speedwell = assay: Test Example 4: weedkilling efficacy by foliar treatment; p: birds-eye speedwell
Procedure, shortened: as §3

redroot pigweed [5] = assay: Test Example 4: weedkilling efficacy by foliar treatment; L: redroot pigweed
Procedure, shortened: as §3

green foxtail [6] = assay: Test Example 4: weedkilling efficacy by foliar treatment; E: green foxtail
Procedure, shortened: as §3

barnyard grass [7] = assay: Test Example 2: weedkilling efficacy, growth period weed treatment in the submerged state; A: barnyard grass
Procedure, shortened: (§4)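 Seedlings at 1-2 leaves in 4 cm-deep submerged alluvial soil received emulsion formulations on the water surface, dosed per hectare; effects were judged 3 weeks on.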

chickweed [8] = assay: Test Example 3: weedkilling efficacy through soil treatment; N: chickweed
Procedure, shortened: as §1

corn [9] = assay: Test Example 3: soil treatment, effect on crop; c: corn
Procedure, shortened: as §1

barnyard grass [10] = assay: Test Example 3: weedkilling efficacy through soil treatment; F: barnyard grass
Procedure, shortened: as §1

green foxtail [11] = assay: Test Example 3: weedkilling efficacy through soil treatment; E: green foxtail
Procedure, shortened: as §1

chickweed [12] = assay: Test Example 4: weedkilling efficacy by foliar treatment; N: chickweed
Procedure, shortened: as §3

oval-leafed pondweed [13] = assay: Test Example 1: weedkilling efficacy, preemergent weed treatment in the submerged state; C: oval-leafed pondweed
Procedure, shortened: as §2

crabgrass [14] = assay: Test Example 4: weedkilling efficacy by foliar treatment; D: crabgrass
Procedure, shortened: as §3

barnyard grass [15] = assay: Test Example 1: weedkilling efficacy, preemergent weed treatment in the submerged state; A: barnyard grass
Procedure, shortened: as §2

bulrush [16] = assay: Test Example 2: weedkilling efficacy, growth period weed treatment in the submerged state; B: bulrush
Procedure, shortened: as §4

directly sown rice [17] = assay: Test Example 3: soil treatment, effect on crop; b: directly sown rice
Procedure, shortened: as §1

rapeseed [18] = assay: Test Example 3: soil treatment, effect on crop; g: rapeseed
Procedure, shortened: as §1

soybean [19] = assay: Test Example 3: soil treatment, effect on crop; d: soybean
Procedure, shortened: as §1

redroot pigweed [20] = assay: Test Example 3: weedkilling efficacy through soil treatment; L: redroot pigweed
Procedure, shortened: as §1

wheat [21] = assay: Test Example 4: foliar treatment, effect on crop; e: wheat
Procedure, shortened: as §3

wheat [22] = assay: Test Example 3: soil treatment, effect on crop; e: wheat
Procedure, shortened: as §1

wild oat [23] = assay: Test Example 3: weedkilling efficacy through soil treatment; G: wild oat
Procedure, shortened: as §1

corn [24] = assay: Test Example 4: foliar treatment, effect on crop; c: corn
Procedure, shortened: as §3

soybean [25] = assay: Test Example 4: foliar treatment, effect on crop; d: soybean
Procedure, shortened: as §3

rapeseed [26] = assay: Test Example 4: foliar treatment, effect on crop; g: rapeseed
Procedure, shortened: as §3

crabgrass [27] = assay: Test Example 3: weedkilling efficacy through soil treatment; D: crabgrass
Procedure, shortened: as §1

black-grass [28] = assay: Test Example 4: weedkilling efficacy by foliar treatment; H: black-grass
Procedure, shortened: as §3

black-grass [29] = assay: Test Example 3: weedkilling efficacy through soil treatment; H: black-grass
Procedure, shortened: as §1

Indian mallow [30] = assay: Test Example 3: weedkilling efficacy through soil treatment; K: Indian mallow
Procedure, shortened: as §1

directly sown rice [31] = assay: Test Example 4: foliar treatment, effect on crop; b: directly sown rice
Procedure, shortened: as §3

oval-leafed pondweed [32] = assay: Test Example 2: weedkilling efficacy, growth period weed treatment in the submerged state; C: oval-leafed pondweed
Procedure, shortened: as §4

bulrush [33] = assay: Test Example 1: weedkilling efficacy, preemergent weed treatment in the submerged state; B: bulrush
Procedure, shortened: as §2

barnyard grass [34] = assay: Test Example 4: weedkilling efficacy by foliar treatment; F: barnyard grass
Procedure, shortened: as §3

catchweed [35] = assay: Test Example 4: weedkilling efficacy by foliar treatment; O: catchweed
Procedure, shortened: as §3

Italian ryegrass [36] = assay: Test Example 4: weedkilling efficacy by foliar treatment; I: Italian ryegrass
Procedure, shortened: as §3

fig-leafed goosefoot [37] = assay: Test Example 3: weedkilling efficacy through soil treatment; M: fig-leafed goosefoot
Procedure, shortened: as §1

common wind-grass [38] = assay: Test Example 3: weedkilling efficacy through soil treatment; J: common wind-grass
Procedure, shortened: as §1

beet [39] = assay: Test Example 3: soil treatment, effect on crop; f: beet
Procedure, shortened: as §1

wild oat [40] = assay: Test Example 4: weedkilling efficacy by foliar treatment; G: wild oat
Procedure, shortened: as §3

catchweed [41] = assay: Test Example 3: weedkilling efficacy through soil treatment; O: catchweed
Procedure, shortened: as §1

fig-leafed goosefoot [42] = assay: Test Example 4: weedkilling efficacy by foliar treatment; M: fig-leafed goosefoot
Procedure, shortened: as §3

## CC1=C(c2ccccc2)C(=O)N(C(C)(C)C(=O)Nc2cc(C(F)(F)F)cc(C)n2)CO1 [B-2-51]
Italian ryegrass [1]
  I (Italian ryegrass) weedkilling efficacy grade: 5 (weed kill ratio 90% or more, (practically complete withering))
Transplanted rice
  a (transplanted rice) effect on crop grade: 0 (weed kill ratio 5% or less (practically no effect))
Beet [2]
  f (beet) effect on crop grade: 4 (weed kill ratio 70% or more, less than 90%)
Indian mallow [3]
  K (Indian mallow) weedkilling efficacy grade: 4 (weed kill ratio 70% or more, less than 90%)
Common wind-grass [4]
  J (common wind-grass) weedkilling efficacy grade: 5 (weed kill ratio 90% or more, (practically complete withering))
birds-eye speedwell
  P (birds-eye speedwell) weedkilling efficacy grade: 4 (weed kill ratio 70% or more, less than 90%)
Redroot pigweed [5]
  L (redroot pigweed) weedkilling efficacy grade: 4 (weed kill ratio 70% or more, less than 90%)
Green foxtail [6]
  E (green foxtail) weedkilling efficacy grade: 5 (weed kill ratio 90% or more, (practically complete withering))
Barnyard grass [7]
  A (barnyard grass) weedkilling efficacy grade: 5 (weed kill ratio 90% or more, (practically complete withering))
Chickweed [8]
  N (chickweed) weedkilling efficacy grade: 4 (weed kill ratio 70% or more, less than 90%)
Corn [9]
  c (corn) effect on crop grade: 1 (weed kill ratio 5% or more, less than 20%)
Barnyard grass [10]
  F (barnyard grass) weedkilling efficacy grade: 5 (weed kill ratio 90% or more, (practically complete withering))
Green foxtail [11]
  E (green foxtail) weedkilling efficacy grade: 5 (weed kill ratio 90% or more, (practically complete withering))
Chickweed [12]
  N (chickweed) weedkilling efficacy grade: 4 (weed kill ratio 70% or more, less than 90%)
oval-leafed pondweed [13]
  C (oval-leafed pondweed) weedkilling efficacy grade: 5 (weed kill ratio 90% or more, (practically complete withering))
Crabgrass [14]
  D (crabgrass) weedkilling efficacy grade: 5 (weed kill ratio 90% or more, (practically complete withering))
Barnyard grass [15]
  A (barnyard grass) weedkilling efficacy grade: 5 (weed kill ratio 90% or more, (practically complete withering))
Bulrush [16]
  B (bulrush) weedkilling efficacy grade: 5 (weed kill ratio 90% or more, (practically complete withering))
Directly sown rice [17]
  b (directly sown rice) effect on crop grade: 3 (weed kill ratio 40% or more, less than 70%)
Rapeseed [18]
  g (rapeseed) effect on crop grade: 2 (weed kill ratio 20% or more, less than 40%)
Soybean [19]
  d (soybean) effect on crop grade: 0 (weed kill ratio 5% or less (practically no effect))
Redroot pigweed [20]
  L (redroot pigweed) weedkilling efficacy grade: 4 (weed kill ratio 70% or more, less than 90%)
Wheat [21]
  e (wheat) effect on crop grade: 1 (weed kill ratio 5% or more, less than 20%)
Wheat [22]
  e (wheat) effect on crop grade: 0 (weed kill ratio 5% or less (practically no effect))
Wild oat [23]
  G (wild oat) weedkilling efficacy grade: 5 (weed kill ratio 90% or more, (practically complete withering))
Corn [24]
  c (corn) effect on crop grade: 0 (weed kill ratio 5% or less (practically no effect))
Soybean [25]
  d (soybean) effect on crop grade: 3 (weed kill ratio 40% or more, less than 70%)
Rapeseed [26]
  g (rapeseed) effect on crop grade: 3 (weed kill ratio 40% or more, less than 70%)
Crabgrass [27]
  D (crabgrass) weedkilling efficacy grade: 5 (weed kill ratio 90% or more, (practically complete withering))
black-grass [28]
  H (black-grass) weedkilling efficacy grade: 5 (weed kill ratio 90% or more, (practically complete withering))
black-grass [29]
  H (black-grass) weedkilling efficacy grade: 5 (weed kill ratio 90% or more, (practically complete withering))
Indian mallow [30]
  K (Indian mallow) weedkilling efficacy grade: 2 (weed kill ratio 20% or more, less than 40%)
Directly sown rice [31]
  b (directly sown rice) effect on crop grade: 4 (weed kill ratio 70% or more, less than 90%)
oval-leafed pondweed [32]
  C (oval-leafed pondweed) weedkilling efficacy grade: 5 (weed kill ratio 90% or more, (practically complete withering))
Bulrush [33]
  B (bulrush) weedkilling efficacy grade: 5 (weed kill ratio 90% or more, (practically complete withering))
Barnyard grass [34]
  F (barnyard grass) weedkilling efficacy grade: 5 (weed kill ratio 90% or more, (practically complete withering))
Catchweed [35]
  O (catchweed) weedkilling efficacy grade: 4 (weed kill ratio 70% or more, less than 90%)
Italian ryegrass [36]
  I (Italian ryegrass) weedkilling efficacy grade: 5 (weed kill ratio 90% or more, (practically complete withering))
fig-leafed goosefoot [37]
  M (fig-leafed goosefoot) weedkilling efficacy grade: 4 (weed kill ratio 70% or more, less than 90%)
Common wind-grass [38]
  J (common wind-grass) weedkilling efficacy grade: 5 (weed kill ratio 90% or more, (practically complete withering))
Beet [39]
  f (beet) effect on crop grade: 4 (weed kill ratio 70% or more, less than 90%)
Wild oat [40]
  G (wild oat) weedkilling efficacy grade: 5 (weed kill ratio 90% or more, (practically complete withering))
Catchweed [41]
  O (catchweed) weedkilling efficacy grade: 3 (weed kill ratio 40% or more, less than 70%)
fig-leafed goosefoot [42]
  M (fig-leafed goosefoot) weedkilling efficacy grade: 4 (weed kill ratio 70% or more, less than 90%)

Source: patent publication US9738634B2, “Heterocyclic amide compound and herbicide” (SYNGENTA PARTICIPATIONS AG, priority 2013, dated 2017)
